Measured values: patent US20240199555A1, “APPLICATIONS OF BIASED LIGANDS OF THE SEROTONIN 5-HT7 RECEPTOR FOR THE TREATMENT OF PAIN, MULTIPLE SCLEROSIS AND THE CONTROL OF THERMOREGULATION” (Centre National de la Recherche Scientifique, priority 2021, published 2024)

Tests used:
[1] = molecular target: T1, h5-HT7R (Homo sapiens (Human), UniProt P34969); assay: ERK1/2 and c-SRC phosphorylation by western blot in HEK-293 cells stably expressing h5-HT7R; type: cell-based; settings: 10 μM of ligand or increasing concentrations, western blot
T1 sequence (P34969 1-432): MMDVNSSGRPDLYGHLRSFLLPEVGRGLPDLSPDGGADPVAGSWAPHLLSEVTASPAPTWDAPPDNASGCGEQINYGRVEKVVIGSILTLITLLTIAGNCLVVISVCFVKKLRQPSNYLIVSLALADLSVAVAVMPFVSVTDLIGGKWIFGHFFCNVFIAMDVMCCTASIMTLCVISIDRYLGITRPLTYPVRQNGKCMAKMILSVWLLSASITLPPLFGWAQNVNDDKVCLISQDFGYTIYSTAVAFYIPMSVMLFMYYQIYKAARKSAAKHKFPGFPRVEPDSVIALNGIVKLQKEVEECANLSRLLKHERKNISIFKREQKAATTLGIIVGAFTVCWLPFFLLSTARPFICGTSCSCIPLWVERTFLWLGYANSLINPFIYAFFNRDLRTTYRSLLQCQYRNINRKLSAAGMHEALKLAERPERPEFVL
Protocol: (A, B, C, D, E, F) Time course of activation of ERK1/2 after stimulation of HEK-293 cells stably expressing h5-HT7R with various 5-HT7R ligands used at 10 μM. The cells were stimulated for the indicated periods and assayed for detection of phospho ERK1/2 by western blot analysis. […] Representative blots of three independent experiments are illustrated. The histogram on the right of each panel represents the results of densitometric analyses of three independent experiments. Data are means±SEM. * p<0.05; ** p<0.01; *** p<0.001 versus non stimulated cells (NS).
HEK-293 cells stably expressing h5-HT7R were stimulated with increasing concentrations of 5-CT or Serodolin for 7 minutes. Cells were lysed, and western blot analysis was performed. Representative Western blots from three independent experiments were shown in A-C. Quantification was performed by densitometric analyses from three independent experiments. Analyzed data were plotted versus log concentration for each compounds (A; B) or as bar graph (C) on the right panel.
Time course of activation of ERK1/2 after stimulation of HEK-293 cells stably expressing h5-HT7R with JLB060, a 5-HT7R ligand used at 10 μM. The cells were stimulated for the indicated periods and assayed for detection of phospho ERK1/2 by western blot analysis.
(§1) Treated cells were washed twice with cold PBS and lysed on ice for 30 min in lysis buffer containing 50 mM Tris pH 7.5, 150 mM NaCl, 10 mM EDTA, 1% Triton X-100 and the protease inhibitor cocktail. Cell lysates were centrifuged at 10,000×g for 10 min. Supernatant was then solubilized in Laemmli buffer with 0.1% β-mercaptoethanol. Samples were resolved by electrophoresis on 10% SDS-PAGE, and transferred electrophoretically to polyvinylidene fluoride (PVDF) membranes (GE Healthcare Life Sciences). […] membranes were washed in Tris-buffered saline (TBS; pH 7.4) containing 0.1% Tween-20 (TBS-T; 0.1%) and blocked with 5% (w/v) dry milk TBS-T 0.1% for 30 min. […] Blots were probed with anti-arrestin, anti-Phospho-ERK or anti-ERK antibody (1:2000), anti Phospho-SRC, anti SRC antibody, anti-HA or anti-GFP or anti-actin antibodies. Horseradish-peroxidase-conjugated goat anti-rabbit, anti-mouse or anti-rat antibodies (1:33,000) were used as secondary antibodies. Immunoreactive bands were detected using the Dura detection kit. Protein quantification on blots was performed using Quantity One software (Biorad).
as §1, with “12%” for “10%”, “with” for “with anti-arrestin,”, “anti-Phospho-ERK (1:2000)” for “anti-Phospho-ERK”, “anti-GAPDH” for “anti-ERK”, “(1:5000). […]” for “(1:2000), anti Phospho-SRC, anti SRC antibody, anti-HA or anti-GFP or anti-actin antibodies. Horseradish-peroxidase-conjugated goat anti-rabbit, anti-mouse or anti-rat antibodies (1:33,000) were used as secondary antibodies.”
ERK phosphorylation was monitored by western blotting after treatment of cells with 10 μM of ligands at different times ranging from 2 to 60 minutes.

[2] = molecular target: human 5-HT2A receptor (Homo sapiens (Human), UniProt P28223); assay: Radioligand binding competition, 5-HT2A; settings: selectivity panel; for IC50: read-out: RLB 5-HT2A IC50; for Ki: read-out: RLB 5-HT2A Ki
Chain of human 5-HT2A receptor (P28223 whole entry): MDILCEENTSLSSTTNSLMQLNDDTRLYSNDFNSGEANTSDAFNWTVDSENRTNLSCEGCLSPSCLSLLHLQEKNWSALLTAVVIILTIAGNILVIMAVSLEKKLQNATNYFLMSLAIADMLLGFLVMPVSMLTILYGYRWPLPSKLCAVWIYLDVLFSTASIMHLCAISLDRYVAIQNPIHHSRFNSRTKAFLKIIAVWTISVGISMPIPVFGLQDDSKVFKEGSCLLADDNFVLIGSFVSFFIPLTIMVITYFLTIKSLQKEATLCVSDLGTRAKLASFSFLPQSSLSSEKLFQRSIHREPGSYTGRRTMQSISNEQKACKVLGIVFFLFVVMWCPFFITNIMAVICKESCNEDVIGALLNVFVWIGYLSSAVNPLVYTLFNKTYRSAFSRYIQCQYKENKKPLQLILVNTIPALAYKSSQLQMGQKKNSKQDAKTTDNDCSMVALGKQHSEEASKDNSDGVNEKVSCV
Protocol: (§2) FIG. 14: Testing of 8 molecules for radioligand binding competition activity on recombinant human 5-HT1A, 5-HT2A, 5-HT2Cedited, 5-HT6, 5-HT7 and D2(long) receptors using filtration binding assays.
(§3) Radioligand Binding experiments were conducted with Epics Therapeutics membrane preparations. Receptor accession numbers, cellular background and reference compounds are shown in this table.
(§4) The new compounds have been tested by radioligand binding competition activity at the human 5-HT1A (FAST-0500B), 5-HT2A (FAST-0505B), 5-HT2Cedited (FAST-0507B), 5-HT6 (FAST-0509B), 5-HT7a (FAST-05111B) and D2(long) (FAST-0101B) receptors at seven (7) concentrations, in duplicate. […] Reference values thus obtained for the test were compared to historical values obtained from the same receptor and used to validate the experimental session. For replicate determinations, the maximum variability tolerated in the test was of +/−20% around the average of the replicates.
(§5) Dose-response data from test compounds were analyzed with XLfit (IDBS) software using nonlinear regression applied to a sigmoidal dose-response model and the following equation: • XL Fit fit Model 203: 4 Parameter Logistic Model • A: Bottom • B: TOP • C: LogEC50 • D: Hill

[3] = molecular target: human 5-HT1A receptor (Homo sapiens (Human), UniProt P08908); assay: Radioligand binding competition, 5-HT1A; settings: selectivity panel; for IC50: read-out: RLB 5-HT1A IC50; for Ki: read-out: RLB 5-HT1A Ki
Chain of human 5-HT1A receptor (P08908 whole entry): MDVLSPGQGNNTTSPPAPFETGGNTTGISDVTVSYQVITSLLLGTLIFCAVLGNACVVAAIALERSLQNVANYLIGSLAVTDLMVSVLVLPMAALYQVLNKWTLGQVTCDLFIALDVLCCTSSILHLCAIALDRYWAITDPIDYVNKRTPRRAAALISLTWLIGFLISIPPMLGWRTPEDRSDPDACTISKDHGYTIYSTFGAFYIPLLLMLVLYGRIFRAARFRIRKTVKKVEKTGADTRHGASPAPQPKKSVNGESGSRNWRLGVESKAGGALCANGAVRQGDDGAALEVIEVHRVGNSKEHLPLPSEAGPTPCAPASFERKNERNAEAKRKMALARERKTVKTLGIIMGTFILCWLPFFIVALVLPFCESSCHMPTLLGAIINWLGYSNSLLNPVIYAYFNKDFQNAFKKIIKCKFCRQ
Protocol: as §2, §3, §4, §5

[4] = molecular target: human 5-HT7a receptor (Homo sapiens (Human), UniProt P34969); assay: Radioligand binding competition, filtration binding assay, 5-HT7a; settings: affinity on 5-HT7 receptor, table of new compounds
Chain of human 5-HT7a receptor (P34969 other isoform, or with tags, fused parts or gaps): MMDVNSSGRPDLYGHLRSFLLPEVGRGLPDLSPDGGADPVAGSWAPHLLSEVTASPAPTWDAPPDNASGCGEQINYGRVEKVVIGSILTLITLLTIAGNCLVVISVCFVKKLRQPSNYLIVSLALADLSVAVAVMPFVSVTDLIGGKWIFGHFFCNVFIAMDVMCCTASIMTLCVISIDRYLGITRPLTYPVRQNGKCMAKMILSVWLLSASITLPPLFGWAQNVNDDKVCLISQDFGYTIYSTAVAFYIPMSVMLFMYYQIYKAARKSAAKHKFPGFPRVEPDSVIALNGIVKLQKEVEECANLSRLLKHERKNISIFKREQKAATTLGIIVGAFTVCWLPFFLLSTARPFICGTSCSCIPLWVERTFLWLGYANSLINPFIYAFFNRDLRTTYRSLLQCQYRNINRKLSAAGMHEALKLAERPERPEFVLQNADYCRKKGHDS
Protocol: as §2, §3
Reference values thus obtained for the test were compared to historical values obtained from the same receptor and used to validate the experimental session. For replicate determinations, the maximum variability tolerated in the test was of +/−20% around the average of the replicates.
as §5

[5] = molecular target: human 5-HT2Cedited receptor (Homo sapiens, UniProt P28335); assay: Radioligand binding competition, 5-HT2Cedited; settings: selectivity panel; for IC50: read-out: RLB 5-HT2Cedited IC50; for Ki: read-out: RLB 5-HT2Cedited Ki
Chain of human 5-HT2Cedited receptor (P28335 33-458 limits assumed): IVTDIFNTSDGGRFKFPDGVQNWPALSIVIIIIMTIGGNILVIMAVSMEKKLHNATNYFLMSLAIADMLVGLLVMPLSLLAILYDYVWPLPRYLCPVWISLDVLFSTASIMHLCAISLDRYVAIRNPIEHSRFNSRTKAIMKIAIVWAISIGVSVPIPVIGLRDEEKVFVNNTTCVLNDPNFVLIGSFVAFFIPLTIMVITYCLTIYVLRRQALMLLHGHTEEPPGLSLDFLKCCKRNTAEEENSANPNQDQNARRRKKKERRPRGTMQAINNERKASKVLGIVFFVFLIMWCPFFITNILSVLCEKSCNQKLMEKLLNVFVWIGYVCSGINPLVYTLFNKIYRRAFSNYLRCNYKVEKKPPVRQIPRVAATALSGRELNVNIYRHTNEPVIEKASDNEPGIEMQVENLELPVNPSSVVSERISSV
Protocol: as §2, §3, §4, §5

[6] = molecular target: T1, h5-HT7R; assay: cAMP accumulation (LANCE cAMP detection kit) in HEK-293 cells stably expressing h5-HT7R; type: cell-based; settings: tested alone
Protocol: (B) HEK-293 cells stably expressing h5-HT7R were stimulated with 10 nM of 5-CT and increasing concentrations of products for one hour. After cell lysis, cAMP production was quantified by a LANCE cAMP detection kit (Perkin Elmer). […] Data points represent the means±SEM from three independent experiments performed in triplicate. The EC50 and IC50 for each drug was determined using GraphPad Prism software.
cAMP accumulation was measured with a LANCE™ cAMP detection kit (Perkin-Elmer Life Sciences, Boston, MA, USA). 12 h before experiment cells were starved. Forty-eight h after transfection, cells were harvested in Hank's balanced salt solution (HBSS) containing 5 mM HEPES, 1 mM isobutylmethylxanthine (IBMX) and 0.1% BSA, PH 7.4. After centrifugation (1000×g, 5 min), cells were resuspended in the same buffer (2×10^6 per ml). The ALEXA™ fluor 647 anti-cAMP antibody solution (1 μl) was added to the cell suspension (100 μl) and 5 μl aliquots of the mixture were dispensed in white 384-well microtiter plates (Optiplate, Perkin Elmer). The cells were then stimulated with different drugs. After 1 h incubation at room temperature in the dark, lysis buffer (0.35% Triton X-100, 10 mM CaCl2, 50 mM HEPES) containing LANCE EU-W8044 labeled streptavidin and biotinylated-cAMP was added to the cells (10 μL per well). After 2 h incubation at room temperature in the dark, the plates were read on a VictorV™ microplate reader (Perkin-Elmer Life Sciences). Concentration/response curves were analyzed using Prism 4 software.
HEK-293 fibroblast stably expressing 5-HT7 receptor were used to compare the effect of different 5-HT7R ligands on the classical Gαs-mediated activation of AC pathway. It was decided to evaluate the lead compounds from two series of ligands, Serodolin and MOA-51 (FIG. 1A).

[7] = molecular target: T1, h5-HT7R; assay: AlphaScreen SureFire phospho-ERK and phospho-c-SRC assays; type: cell-based; settings: pretreatment of cells, Serodolin stimulation
Protocol: FIG. 7: Serodolin induced ERK phosphorylation is dependent on c-SRC activation and requires proline-rich regions on 5-HT7R. […] Cells were lysed, and western blot analysis was performed. (B) The phosphorylation of ERK1/2 as well as phosphorylation of c-SRC were quantified on the same cell lysates using the AlphaScreen assays. Means±SEM of values from three experiments performed in triplicate. (C) The PXXP motif in the C-terminal tail of 5-HT7R has been mutated as described in the upper panel. The corresponding constructs encoding HA-tagged 5-HT7 receptor were transfected in HEK-293 cells as indicated (MutT1, mutT2 and mutT3), then the effect of 5-CT and Serodolin have been evaluated on ERK1/2 and c-SRC activation by Western blot analysis. Representative immunoblots of three independent experiments are illustrated.
The AlphaScreen SureFire phospho-ERK and phosphor-c-SRC assays (PerkinElmer) were used to quantify pERK1/2 and pc-SRC from HEK-293 cell lysates according to the manufacturer's instructions.
(2018) V1b vasopressin receptor trafficking and signaling: Role of arrestins, G proteins and Src kinase. Traffic 19, 58-82; Rey, A., Manen, D., Rizzoli, R., Caverzasio, J., and Ferrari, S. L. (2006) Proline-rich motifs in the parathyroid hormone (PTH)/PTH-related protein receptor C terminus mediate scaffolding of c-Src with beta-arrestin2 for ERK1/2 activation. J Biol Chem 281, 38181-38188). […] To determine whether one of these mechanisms was required for Serodolin-induced ERK phosphorylation, the inventors first evaluated the sensitivity of this activation to the c-SRC-specific tyrosine kinase inhibitor PP2. […]

[8] = tested on: C57BL/6 mice; assay: Spared Nerve Injury (SNI) neuropathic pain model, Von Frey; settings: s.c.
Protocol: Pregabalin, vehicle or compounds solutions are subcutaneously administrated for 8 consecutive days. • (A) Mechanical response threshold after the first administration (D+10). […] Positive control animals were treated with Pregabalin (5 mg/kg, sc). Statistical differences are indicated compared to vehicle group (Two-way RM ANOVA followed by Bonferroni post-hoc test: ***p<0.001, ** p<0.01, * p<0.05). […] Positive control animals were treated with Pregabalin (5 mg/kg, sc). Statistical differences are indicated compared to vehicle group (Two-way RM ANOVA followed by Bonferroni post-hoc test: ***p<0.001, ** p<0.01, * p<0.05). […] (Two-way RM ANOVA followed by Bonferroni post-hoc test: ***p<0.001, ** p<0.01, * p<0.05)
MOA51 and Serodolin (AIC01) compounds were diluted in NDT solution (NaCl 0.9%—DMSO 20%—Tween80 5%). […] AIC01 was resuspended at 0.5 mg/mL and administrated at a ratio of 100 μl per 10 g (dose of 5 mg/kg).
Experiment starts with 8 weeks old male C57B16J mice (from Charles River). Study was performed on 40 mice (2 mice were excluded during the study due to health guidelines) divided in 4 randomized groups. • Group A: s.c. injection at 5 mg/kg of pregabalin. • Group B: s.c. injection at 0.5 mg/kg of MOA51. • Group C: s.c. injection at 5 mg/kg of Serodolin (AIC01). • Group D: s.c. injection of NDT solution (referred as Vehicle hereafter).
Compounds solutions, pregabalin and vehicle were subcutaneously administrated (100 μl/10 g) for 9 consecutive days, starting 10 days after surgery. Ligature and transection of the common peroneal and tibial distal branches of the sciatic nerve was made leaving the sural branch intact. 7 days post-surgery, a decrease of threshold response to Von Frey filaments of ipsilateral hind-paw was observed corresponding to neuropathic pain apparition (mechanical allodynia). Mechanical threshold response of mice were measured with calibrated Von Frey filaments using the up/down method. Experimenter was blind to mice treatment. Measures are performed as follow: one baseline measure before surgery, one measure at D+10, D+12, D+14, D+16 and D+18 before drug's administration, and 1 h, 2 h post-drug administration. A supplementary measure 4 h post-drug administration was performed at D+10 and D+18.
Two-way RM ANOVA (followed by Bonferroni post-hoc test) was used to analysed time course response at D+10 and D+18. Area under the curve was determined with the 1 h and 2 h post-drug administration measures to investigated tolerance of repeated administration of compounds

In the case of `O=C1Nc2cccc3c2C1(CCCCN1CC=C(c2ccccc2)CC1)CCC3` (stereo not drawn) [DR4004, reference compound], the “induction of ERK phosphorylation” value [1] is reported as “none of them were able to induce ERK activation”.
Compound `O=c1[nH]c2ccccc2n1CCCCCN1CCCN(c2ccc(F)cc2)CC1` [JLB060] has an IC50 [2] of 137 nM, a Ki [2] of 23 nM and an IC50 [3] of 850 nM. The Ki [3] was 425 nM, the IC50 [4] was 0.98 nM and the Ki [4] was 0.69 nM. For the same compound, the IC50 [5] was 902 nM, the Ki [5] was 148 nM and the “induction of ERK phosphorylation” value [1] was “robustly induce ERK phosphorylation”.
In the case of `O=C(c1ccc(F)cc1)C1CCN(CCCCn2c(=O)[nH]c3ccccc32)CC1` [MOA51], the “inhibition of cAMP production when tested alone (inverse agonist effect)” value [6] is reported as “around 75%”, the IC50 [2] is reported as 3.29 nM and the Ki [2] is reported as 0.54 nM. The IC50 [3] was 885 nM, the Ki [3] was 442 nM and the IC50 [4] was 0.29 nM. The Ki [4] was 0.2 nM, the IC50 [5] was 699 nM and the Ki [5] was 115 nM.
In the case of `CC(C)(C)n1nc(-c2ccc(Cl)cc2)c2c(N)ncnc21` [PP2], the “block of Serodolin-induced ERK phosphorylation” value [7] is reported as 99% and the “block of Serodolin-induced c-SRC phosphorylation” value [7] is reported as 100%.
With `Nc1ncnc2c1cnn2-c1ccccc1` [PP3] the “block of Serodolin-induced ERK phosphorylation” value [7] was “inactive”.
For `CC(C)C[C@H](CN)CC(=O)O` [Pregabalin, reference compound], the “tolerance after repetitive administration (AUC)” value ([8]; 9 consecutive days) was “significant decrease of the analgesic effect” and the “mechanical response threshold vs vehicle” value ([8]; first (D+10) and last (D+18) administration, 1 h and 2 h) was “significant increase of the mechanical response threshold”.
